pIC50: −log10 of the molar value.
Target: AT2 Receptor (AT2R) (Homo sapiens (Human), UniProt P50052)
Experiment: Inhibitory activity on AT2 receptor (Tag-lite HTRF, Tb-labeled AT2R cells, angiotensin receptor red agonist)
Format: binding
Details: 1 h at room temperature

Sequence of AT2 Receptor (AT2R) (P50052 whole entry): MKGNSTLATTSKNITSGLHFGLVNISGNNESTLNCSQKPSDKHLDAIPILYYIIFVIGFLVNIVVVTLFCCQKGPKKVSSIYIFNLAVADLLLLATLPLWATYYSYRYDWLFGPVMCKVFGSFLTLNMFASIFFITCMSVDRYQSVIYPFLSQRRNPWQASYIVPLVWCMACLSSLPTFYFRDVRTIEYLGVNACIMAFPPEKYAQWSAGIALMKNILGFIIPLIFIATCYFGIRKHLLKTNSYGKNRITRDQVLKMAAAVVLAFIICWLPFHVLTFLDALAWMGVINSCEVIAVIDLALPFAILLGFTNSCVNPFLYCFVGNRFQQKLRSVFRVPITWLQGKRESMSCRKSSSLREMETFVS

| SMILES | pIC50 |
| --- | --- |
| COc1ccccc1N(C(=O)N1CCN(C(=O)N2c3ccccc3CC(=O)c3ccccc32)[C@H](C(=O)NS(=O)(=O)N(C)C)C1)c1ccccc1OC [Compound C111, (S)-N^3-(N,N-dimethylsulphamoyl)-N^1,N^1-bis (2-methoxyphenyl)-4-(10-oxo-10,11-dihydro-5H-dibenzo[b,f]azepine-5-carbonyl) piperazine-1,3-dicarboxamide] | 6.64 |
| O=C(O)[C@@H]1CN(C(=O)C(c2ccccc2)c2ccccc2)CCN1C(=O)N1c2ccccc2Sc2ccccc21 [Compound C21, (S)-4-(2,2-diphenylacetyl)-1-(10H-phenothiazine-10-carbonyl)piperazine-2-carboxylic acid] | 6.72 |
| O=C1Nc2ccccc2N(C(=O)N2CCN(C(=O)N(c3ccccc3)c3ccccc3)C[C@H]2C(=O)O)c2ccccc21 [Compound C53, (S)-4-(diphenylcarbamoyl)-1-(11-oxo-10,11-dihydro-5H-dibenzo[b,e][1,4]diazepine-5-carbonyl)piperazine-2-carboxylic acid] | 5.87 |
| O=C(O)[C@@H]1CN(C(=O)C2(c3ccccc3)CCCC2)CCN1C(=O)N(c1ccccc1)c1ccccc1 [Compound C83, (S)-1-(diphenylcarbamoyl)-4-(1-phenylcyclopentanecarbonyl) piperazine-2-carboxylic acid] | 8.20 |
| CCN(Cc1ccccc1)C(=O)N1CCN(C(=O)N2c3ccccc3CC(=O)c3ccccc32)[C@H](C(=O)O)C1 [Compound C78, (S)-4-(benzyl(ethyl)carbamoyl)-1-(10-oxo-10,11-dihydro-5H-dibenzo [b,f]azepine-5-carbonyl) piperazine-2-carboxylic acid] | 7.05 |
| COc1ccccc1N(C(=O)N1CCN(C(=O)N2c3ccccc3C(=O)N(C)c3ccccc32)[C@H](C(=O)O)C1)c1ccccc1OC [Compound C97, (S)-4-(bis(2-methoxyphenyl)carbamoyl)-1-(10-methyl-11-oxo-10,11-dihydro-5H-dibenzo [b,e][1,4]diazepine-5-carbonyl)piperazine-2-carboxylic acid] | 6.86 |
| COc1ccccc1N(C(=O)N1CCN(C(=O)N2c3ccccc3C=Cc3ccccc32)[C@H](C(=O)O)C1)c1ccccc1 [Compound C113, (S)-1-(5H-dibenzo[b,f]azepine-5-carbonyl)-4-((2-methoxylphenyl) (phenyl)carbamoyl) piperazine-2-carboxylic acid] | 8.13 |
| CN(C)S(=O)(=O)NC(=O)[C@@H]1CN(C(=O)N(c2ccccc2)c2ccccc2)CCN1C(=O)N1c2ccccc2CC(=O)c2ccccc21 [Compound C103] | 6.48 |
| O=C1Cc2ccccc2N(C(=O)N2CCN(C(=O)N(c3ccccc3F)c3ccccc3F)C[C@H]2C(=O)O)c2ccccc21 [Compound C91, (S)-4-(bis(2-fluophenyl)carbamoyl)-1-(10-oxo-10,11-dihydro-5H-dibenzo [b,f]azepine-5-carbonyl)piperazine-2-carboxylic acid] | 7.51 |
| Cc1ccc(CN(C(=O)N2CCN(C(=O)C(c3ccccc3)c3ccccc3)[C@H](C(=O)O)C2)C2CC2)s1 [Compound C153, (S)-4-(cyclopropyl((5-methylthiophen-2-yl)methyl)carbamoyl)-1-(2,2-diphenylacetyl)piperazine-2-carboxylic acid] | 8.26 |
| O=C1Cc2ccccc2N(C(=O)N2CCN(C(=O)N(c3ccc(F)cc3)c3ccc(F)cc3)C[C@H]2C(=O)O)c2ccccc21 [Compound C105, (S)-4-(bis(4-fluorinephenyl)carbamoyl)-1-(10-oxo-10,11-dihydro-5H-dibenzo [b,f]azepine-5-carbonyl)piperazine-2-carboxylic acid] | 6.79 |
| CN1C(=O)c2ccccc2N(C(=O)N2CCN(C(=O)N(c3ccccc3)c3ccccc3)C[C@H]2C(=O)O)c2ccccc21 [Compound C96] | 7.88 |
| CCN(Cc1csc(Cl)c1)C(=O)N1CCN(C(=O)N(c2ccccc2)c2ccccc2)[C@H](C(=O)O)C1 [Compound C150, (S)-4-(((5-chlorothiophene-3-yl)methyl)(ethyl)carbamoyl)-1-(diphenylcarbamoyl) piperazine-2-carboxylic acid] | 7.58 |
| CS(=O)(=O)NC(=O)[C@@H]1CN(C(=O)N2c3ccccc3CC(=O)c3ccccc32)CCN1C(=O)N(c1ccccc1)c1ccccc1 [Compound C149] | 6.54 |
| Cc1ccccc1N(C(=O)N1CCN(C(=O)N2c3ccccc3C=Cc3ccccc32)[C@H](C(=O)O)C1)c1ccccc1 [Compound C59, (S)-1-(5H-dibenzo[b,f]azepine-5-carbonyl)-4-(phenyl(orthomethylphenyl)carbamoyl) piperazine-2-carb oxylic acid] | 7.17 |
| CCN(Cc1ccc(C)s1)C(=O)N1CCN(C(=O)N(c2ccccc2)c2ccccc2)[C@H](C(=O)O)C1 [Compound C134, (S)-1-(diphenylcarbamoyl)-4-(ethyl((5-methylthiophen-2-yl)methyl)carbamoyl) piperazine-2-carboxylic acid] | 7.73 |
| O=C(O)[C@@H]1CN(C(=O)N(c2ccccc2)c2ccccc2)CCN1C(=O)C1(O)c2ccccc2-c2ccccc21 [Compound C85, (S)-4-(diphenylcarbamoyl)-1-(9-hydroxy-9H-fluorene-9-carbonyl)piperazine-2-carboxylic acid] | 6.34 |

| SMILES | pIC50 |
| --- | --- |
| Cc1ccc(CN(C(=O)N2CCN(C(=O)N(c3ccccc3)c3ccccc3)[C@H](C(=O)O)C2)C2CC2)s1 [Compound C145, (S)-4-(cyclopropyl((5-methylthiophen-2-yl)methyl)carbamoyl)-1-(diphenylcarbamoyl) piperazine-2-carboxylic acid] | 8.44 |
| O=C(O)[C@@H]1CN(C(=O)N2CCC[C@@H]2c2ccccc2)CCN1C(=O)N(c1ccccc1)c1ccccc1 [Compound C128, (S)-1-(diphenylcarbamoyl)-4-((R)-2-phenylpyrrolidine-1-carbonyl) piperazine-2-carboxylic acid] | 7.90 |
| COc1cccc(N(C(=O)N2CCN(C(=O)N3c4ccccc4CC(=O)c4ccccc43)[C@H](C(=O)O)C2)c2cccc(OC)c2)c1 [Compound C108, (S)-4-(bis(3-methoxylphenyl)carbamoyl)-1-(10-oxo-10,11-dihydro-5H-dibenzo [b,f]azepine-5-carbonyl)piperazine-2-carboxylic acid] | 7.29 |
| Cc1cc(CN(C(=O)N2CCN(C(=O)N(c3ccccc3)c3ccccc3)[C@H](C(=O)O)C2)C2CC2)cs1 [Compound C146, (S)-4-(cyclopropyl((5-methylthiophen-3-yl)methyl)carbamoyl)-1-(diphenylcarbamoyl) piperazine-2-carboxylic acid] | 7.85 |
| O=C1Cc2ccccc2N(C(=O)N2CCN(C(=O)N(c3ccccc3)c3ccccc3)C[C@H]2C(=O)NO)c2ccccc21 [Compound C123] | 6.30 |
| CCN1C(=O)c2ccccc2N(C(=O)N2CCN(C(=O)N(c3ccccc3)c3ccccc3)C[C@H]2C(=O)O)c2ccccc21 [Compound C98, (S)-4-(diphenylcarbamoyl)-1-(10-ethyl-11-oxo-10,11-dihydro-5H-dibenzo[b,e][1,4]diazepine-5-carbonyl) piperazine-2-carboxylic acid] | 8.09 |
| O=C1Cc2ccccc2N(C(=O)N2CCN(C(=O)N(c3ccccc3)c3ccccc3)C[C@H]2c2nn[nH]n2)c2ccccc21 [Compound C104, (S)-4-(10-oxo-10,11-dihydro-5H-dibenzo[b,f]azepine-5-carbonyl)-N, N-diphenyl-3-(1H-tetrazol-5-yl)piperazine-1-carboxamide] | 6.53 |
| O=C(O)[C@@H]1CN(C(=O)OCc2ccccc2)CCN1C(=O)C1(c2ccccc2)CCCCC1 [Compound C86, (S)-4-((benzyloxy)carbonyl)-1-(1-phenylcyclohexanecarbonyl) piperazine-2-carboxylic acid] | 6.30 |
| Cc1cc(CN(C)C(=O)N2CCN(C(=O)N(c3ccccc3)c3ccccc3)[C@H](C(=O)O)C2)sc1C [Compound C144, (S)-4-(((4,5-dimethylthiophen-2-yl)methyl)(methyl)carbamoyl)-1-(diphenylcarbamoyl) piperazine-2-carboxylic acid] | 7.01 |
| O=C(O)[C@@H]1CN(C(=O)N(c2ccccc2)c2ccccc2)CCN1C(=O)N1CCC[C@H]1c1ccccc1 [Compound C129, (S)-4-(diphenylcarbamoyl)-1-((S)-2-phenylpyrrolidinyl-1-carbonyl)piperazine-2-carboxylic acid] | 7.01 |
| CC(C(=O)N1CCN(C(=O)N2c3ccccc3CC(=O)c3ccccc32)[C@H](C(=O)O)C1)(c1ccccc1)c1ccccc1 [Compound C106, (S)-4-(2,2-diphenylpropionyl)-1-(10-oxo-10,11-dihydro-5H-dibenzo [b,f]azepine-5-carbonyl) piperazine-2-carboxylic acid] | 6.55 |
| CN(Cc1ccccc1)C(=O)N1CCN(C(=O)N2c3ccccc3C=Cc3ccccc32)[C@H](C(=O)O)C1 [Compound C88, (S)-4-(benzyl(methyl)carbamoyl)-1-(5H-dibenzo[b,f]azepine-5-carbonyl) piperazine-2-carboxylic acid] | 6.41 |
| CN(Cc1ccccc1)C(=O)N1CCN(C(=O)C2(c3ccccc3)CCCCC2)[C@H](C(=O)O)C1 [Compound C87, (S)-4-(benzyl(methyl)carbamoyl)-1-(1-phenylcyclohexanecarbonyl) piperazine-2-carboxylic acid] | 6.41 |
| O=C(N1CCN(C(=O)N2c3ccccc3C=Cc3ccccc32)[C@H](c2nnn[nH]2)C1)N(c1ccccc1)c1ccccc1 [Compound C31, (S)-4-(5H-dibenzo[b,f]azepine-5-carbonyl)-N,N-diphenyl-3-(1H-tetrazol-5-yl)piperazine-1-carboxamide] | 6.66 |
| O=C(O)[C@@H]1CN(C(=O)OCc2cccs2)CCN1C(=O)N(c1ccccc1)c1ccccc1 [Compound C140, (S)-1-(diphenylcarbamoyl)-4-((thiophene-2-ylmethoxy)carbonyl) piperazine-2-carboxylic acid] | 6.48 |
| CCN(Cc1csc(C)c1)C(=O)N1CCN(C(=O)N(c2ccccc2)c2ccccc2)[C@H](C(=O)O)C1 [Compound C137, (S)-1-(diphenylcarbamoyl)-4-(ethyl((5-methylthiophen-3-yl)methyl)carbamoyl) piperazine-2-carboxylic acid] | 7.44 |
